Source: article PMC12442099 (ACS Infectious Diseases, 2025)
Converted amounts (≈) assume the structure as drawn.

Assays:
[1] = system: heat shock (groES) response in E. coli TOP10F’; test: Heat shock (groES) stress kinetics reporter assay; assay type: cell-based; details: PMBN 25 μg/mL
Protocol: (§1) Stress was measured in real-time during 10 h following compound treatment by normalizing the fluorescence intensity for growth as indicated by the optical density at 600 nm (OD600) of the culture.
3 Bacterial stress responses of different compound classes as shown in panel (A). (B) Rcs, (C) σE, (D) Cpx, and (E) heat shock. Graphs show fold change in fluorescence normalized for OD600 at EC80 compound concentrations over the course of 10h. Fold change values were determined by comparing OD600‑normalized fluorescence of compound-treated samples to DMSO treated samples. PMBN is used as a CE stress-inducing control at 25 μg/mL, which is the concentration used as a control during the screening campaign. Chloramphenicol at 1 μg/mL is used as a non-stress-inducing antibiotic control. […]
(§2) For lower throughput analysis under laboratory conditions, cultures grown to OD600 of 0.3–0.4 were diluted to a final concnetration of 0.05 OD600 units/mL in black, clear-bottom 96-well plates (Greiner Bio-One B.V.). Plates were incubated in a Biotek HTX or H1 plate reader (Agilent Technologies) at 37 °C with continuous shaking. Kinetic studies were performed by measuring OD600 and fluorescence (Ex./Em. Λ: 485/528 nm) every 20 min for 10h. For end point measurements, fluorescence was measured at T = 0 and once more at T = 150 min.

[2] = system: σE stress response in E. coli TOP10F’; test: σE stress kinetics reporter assay; assay type: cell-based
Protocol: as §1
(§3) 3 Bacterial stress responses of different compound classes as shown in panel (A). (B) Rcs, (C) σE, (D) Cpx, and (E) heat shock. Graphs show fold change in fluorescence normalized for OD600 at EC80 compound concentrations over the course of 10h. Fold change values were determined by comparing OD600‑normalized fluorescence of compound-treated samples to DMSO treated samples. PMBN is used as a CE stress-inducing control at 25 μg/mL, which is the concentration used as a control during the screening campaign. Chloramphenicol at 1 μg/mL is used as a non-stress-inducing antibiotic control. Error bars indicate standard deviation of the average of triplicate samples from at least two independent experiments. (F) Overview of the different stress responses based on the compound class.
as §2

[3] = system: Rcs stress response in E. coli TOP10F’; test: Rcs stress kinetics reporter assay; assay type: cell-based
Protocol: as §1, §3, §2

[4] = system: Cpx stress response in E. coli TOP10F’; test: Cpx stress kinetics reporter assay; assay type: cell-based
Protocol: as §1, §3, §2

[5] = system: Rcs stress (PrprA-mNG) in E. coli TOP10F’ cells; test: Rcs stress reporter assay, laboratory scale 96-well end point; assay type: cell-based; details: 50 μM MRL-494, 150 min, compared to 25 μM PMBN (100%)
Protocol: as §2

E. coli TOP10F' = test: Growth inhibition after 7 hours (EC80/EC50); details: for EC50 / IC80: Escherichia coli, 7 h; for EC50: read-out: EC50 TOP10F'; for IC80: read-out: EC80 TOP10F'
[6] = system: SOS stress response in E. coli TOP10F’; test: SOS stress reporter assay (PlexA-mNG); assay type: cell-based; details: Fig. S4
Protocol: (§4) To examine the potential link between DNA gyrase inhibition, SOS stress, and CE stress, we designed a fluorescent SOS reporter plasmid, similar to the reporter plasmids used to study CE stresses.
Figure S3: Growth kinetics of lomefloxacin, gepotidacin, A2 and B1 on WT, FQR and GEPR mutants. E. coli TOP10F’ cells were treated with EC80 concentrations of compounds and growth (OD600) recorded over time.
Graphs indicate % growth compared to DMSO control. Error bars indicate standard deviations of triplicates.
Data are representative of three independent experiments with similar results.
Fold change (RFU/OD600) MMC 1.6 μM
Fold change (RFU/OD600) Lome 18 μM
Figure S4: SOS stress induced by mitomycin C (MMC) and lomefloxacin (Lome). A) E. coli MC4100 or B) TOP10F’ cells with a plasmid expressing mNeonGreen under control of a PlexA promotor were treated with compounds and growth (OD600) and fluorescence recorded over time. Graphs indicate fold change in growth-adjusted fluorescence compared to DMSO control. Error bars indicate standard deviations of triplicates. […]

[7] = system: Rcs stress response in E. coli MC4100 (WT, FQR, GEPR); test: Rcs stress reporter assay in MC4100 wildtype and resistant mutants; assay type: cell-based; details: EC80 concentrations
Description: Serial passaging of E. coli MC4100 in the presence of increasing concentrations of lomefloxacin or gepotidacin yielded resistant variants of E. coli MC4100. We used MC4100 to raise resistance, because unlike the screening strain TOP10F’, this strain has a functional SOS stress response, which has been implicated in developing resistance against quinolones. Compounds also elicited a robust Rcs stress response in E. coli MC4100, allowing for this strain to be used for stress assays.
4 Rcs stress induced by EC80 concentrations of (A) lomefloxacin, (B) gepotidacin, (C) A2, and (D) B1 in wildtype (WT), fluoroquinolone resistant (FQR) or gepotidacin resistant (GEPR) bacteria. Graphs show the fold change in fluorescence adjusted for bacterial growth as determined by OD600. Error bars indicate the standard deviation of triplicate samples. Data are representative of three independent experiments with similar results. […]
as §2

[8] = system: SOS stress response in E. coli MC4100; test: SOS stress reporter assay (PlexA-mNG); assay type: cell-based; details: EC80 compound concentrations (Fig. 5A); Fig. S4
Description: as §4
5 (A) SOS stress induced by different compounds at EC80 concentrations in E. coli MC4100. (B) Rcs stress of different compounds at EC80 concentrations in E. coli MC4100. (C) Rcs stress of the nonquinolone gyrase inhibitor LEI-800 in TOP10F’. (D) Rcs stress induced by mitomycin C in E. coli TOP10F’ and E. coli MC4100. Graphs show fold change in fluorescence adjusted for bacterial growth (OD600). Error bars indicate standard deviation of triplicates. Data are representative of two independent experiments with similar results.

E. coli MC4100 = test: Growth inhibition after 7 hours (EC80/EC50); details: Escherichia coli, MC4100, 7 h; for EC50: read-out: EC50 MC4100; for IC80: read-out: EC80 MC4100
[9] = system: E. coli MC4100 FQR and GEPR mutants; test: Growth kinetics on resistant mutants; assay type: cell-based; details: EC80 concentrations, Fig. S3
Protocol: ONC of E. coli MC4100 were diluted to OD600 = 0.07 in 20 mL LB supplemented with an initial concentration of 0.4 μM lomefloxacin, 8 μM gepotidacin, or no antibiotic. After overnight incubation, part of the culture was plated onto LB agar plates with the same concentration of lomefloxacin or gepotidacin to isolate resistant colonies. OD600 of the remaining culture was determined and diluted to OD600 = 0.1 into fresh medium with a 1.5–2-fold increased concentration of lomefloxacin or gepotidacin. […] Resistant colonies were sent for Whole Genome Sequencing using short Illumina reads at MicrobesNG (Birmingham, UK). Sequencing data was analyzed using CLC Genomics Workbench (Qiagen).
Figure S3: Growth kinetics of lomefloxacin, gepotidacin, A2 and B1 on WT, FQR and GEPR mutants. E. coli
TOP10F’ cells were treated with EC80 concentrations of compounds and growth (OD600) recorded over time.
Graphs indicate % growth compared to DMSO control. Error bars indicate standard deviations of triplicates. […]

E. coli TOP10F’ = test: MIC broth microdilution; assay type: cell-based; details: Escherichia coli; screening strain; CAMHB, median of triplicates; read-out: MIC (μg/mL) E. coli TOP10F’
Protocol: (§5) The antibacterial activity of the compounds was determined by measuring their minimum inhibitory concentration (MIC) values using the broth microdilution method according to the Clinical and Laboratory Standards Institute guidelines (CLSI). Briefly, a single colony from blood agar plates was inoculated into cation-adjusted Mueller-Hinton broth (CAMHB) and grown to OD600 = 0.5. Next, 10^6 CFU/mL were added to a 2-fold serial dilution series of test compounds and incubated at 37 °C, 600 rpm overnight (18–20 h for Gram-negative strains, 20–24 h for Gram-positive strains), after which the plates were visually inspected for bacterial growth. MICs are reported as the median of triplicates.

P. aeruginosa 27853 = test: MIC broth microdilution; assay type: cell-based; details: Pseudomonas aeruginosa, clinical isolate, CAMHB, median of triplicates, read-out: MIC (μg/mL) P. aeruginosa 27853
Protocol: as §5

E. coli BW25113 = test: MIC broth microdilution; assay type: cell-based; details: Escherichia coli, CAMHB, median of triplicates, read-out: MIC (μg/mL) E. coli BW25113
Protocol: as §5

K. pneumoniae 13883 = test: MIC broth microdilution; assay type: cell-based; details: Klebsiella pneumoniae, clinical isolate, CAMHB, median of triplicates, read-out: MIC (μg/mL) K. pneumoniae 13883
Protocol: as §5

A. baumanni 9955 = test: MIC broth microdilution; assay type: cell-based; details: Acinetobacter baumannii, clinical isolate, CAMHB, median of triplicates, read-out: MIC (μg/mL) A. baumanni 9955
Protocol: as §5

S. aureus USA 300 = test: MIC broth microdilution; assay type: cell-based; details: Staphylococcus aureus, USA300; clinical isolate; CAMHB, median of triplicates; read-out: MIC (μg/mL) S. aureus USA 300
Protocol: as §5

E. coli 25922 = test: MIC broth microdilution; assay type: cell-based; details: Escherichia coli, CAMHB, median of triplicates, read-out: MIC (μg/mL) E. coli 25922
Protocol: as §5

[10] = Figure 3F, compounds at EC80, PMBN 25 μg/mL
[11] = compounds at EC80, PMBN 25 μg/mL

polymyxin B nonapeptide [PMBN]
heat shock induction [1]: did not induce heat shock | σE Response time [2, 10]: Fast | σE Pattern [2, 11]: Single peak | Rcs Response time [3, 10]: Fast | Rcs Pattern [3, 11]: Single peak | Cpx Pattern [4, 10]: Continuous | Cpx Response time [4, 10]: Slow

NC(N)=NC(=O)CC(Nc1nc(N=C(N)N)nc(NC2CCC(NC(=O)Cn3nnc(-c4ccc(F)cc4)n3)CC2)n1)C1CC1 (stereo not shown) [MRL-494, reference compound]
% effect (Rcs stress-induced fluorescence) [5]: 100.4% | EC50 TOP10F' (E. coli TOP10F'; growth after 7 hours inhibited by 50% compared to DMSO control): 16 µg/mL (≈ 25.7 µM) | EC80 TOP10F' (E. coli TOP10F'; growth after 7 hours inhibited by 80% compared to DMSO control): 32 µg/mL (≈ 51.4 µM)

CO[C@@]12[C@H](COC(N)=O)C3=C(C(=O)C(C)=C(N)C3=O)N1C[C@@H]1N[C@@H]12 [mitomycin C]
SOS stress induction in TOP10F’ [6]: did not induce high fluorescence | Rcs stress induction in MC4100 wildtype [7]: Neither compound induced Rcs stress | SOS stress induction in MC4100 [8]: high fluorescence | Rcs stress induction in SOS-deficient TOP10F’ ([3]; fold change fluorescence/OD600): at lower levels than the gyrase inhibitors

CCn1cc(C(=O)O)c(=O)c2cc(F)c(N3CCNC(C)C3)c(F)c21 (stereo not shown) [lomefloxacin, Lomefloxacin, reference compound]
SOS stress induction in TOP10F’ [6]: did not induce high fluorescence | Rcs stress in FQR (gyrA S83L) mutant [7]: lacked Rcs stress | SOS stress induction in MC4100 [8]: high fluorescence | EC50 (E. coli MC4100): 0.125 µg/mL (≈ 0.356 µM) | IC80 (E. coli MC4100): 0.25 µg/mL (≈ 0.712 µM) | growth inhibition / susceptibility of GEPR mutant [9]: less susceptible | EC50 (E. coli TOP10F'): 0.031 µg/mL (≈ 0.0882 µM) | IC80 (E. coli TOP10F'): 2 µg/mL (≈ 5.69 µM)

O=c1ccc2ncc(=O)n3c2n1C[C@H]3CN1CCC(NCc2cc3c(cn2)OCCC3)CC1 [gepotidacin, Gepotidacin, reference compound]
time of primary σE peak ([2]; EC80 concentrations): ~150 min | σE onset time ([2]; EC80 concentrations): ~60 min | fold change in σE stress (up to) ([2]; EC80 concentrations, vs DMSO): ~3 fold | σE Pattern [2, 11]: biphasic | Rcs stress in FQR (gyrA S83L) mutant [7]: still exhibited Rcs stress | Rcs stress in GEPR mutant [7]: did not show Rcs stress | Rcs onset time ([3]; EC80 concentrations): ~100 min | time of (first) Rcs peak post-treatment ([3]; EC80 concentrations): 260 to 280 min | fold increase in Rcs stress (up to) ([3]; EC80 concentrations, fluorescence/OD600 vs DMSO, 10 h): ~17 fold | Rcs Pattern [3, 11]: biphasic | Cpx onset time ([4]; EC80 concentrations): 150 to 200 min | EC50 (E. coli MC4100): 1 µg/mL (≈ 2.23 µM) | IC80 (E. coli MC4100): 8 µg/mL (≈ 17.8 µM) | growth inhibition / susceptibility of FQR (gyrA S83L) mutant [9]: remained susceptible to growth inhibition | growth inhibition / susceptibility of GEPR mutant [9]: moderate insensitivity | EC50 (E. coli TOP10F'): 0.125 µg/mL (≈ 0.279 µM) | IC80 (E. coli TOP10F'): 8 µg/mL (≈ 17.8 µM) | MIC (E. coli TOP10F’): 0.06 µg/mL (≈ 0.134 µM) | MIC (P. aeruginosa 27853): 8 µg/mL (≈ 17.8 µM) | MIC (E. coli BW25113): 1 µg/mL (≈ 2.23 µM) | MIC (K. pneumoniae 13883): 4 µg/mL (≈ 8.92 µM) | MIC (A. baumanni 9955): 16 µg/mL (≈ 35.7 µM) | MIC (S. aureus USA 300): 0.25 µg/mL (≈ 0.557 µM) | MIC (E. coli 25922): 2 µg/mL (≈ 4.46 µM)
